{
  "source": "paper PMC7827406",
  "about": "“Structure–Activity Relationship (SAR) Study of Spautin-1 to Entail the Discovery of Novel NEK4 Inhibitors” (International Journal of Molecular Sciences, 2021)",
  "assay_in_all_cases": "biochemical",
  "design_in_all_cases": "Eurofins KinaseProfiler full panel at Km ATP, residual kinase activity (%) relative to DMSO",
  "key": {"MARK1(h)": {"molecular_target": "MARK1(h) (Homo sapiens, UniProt Q9P0L2)", "sequence (Q9P0L2 whole entry)": "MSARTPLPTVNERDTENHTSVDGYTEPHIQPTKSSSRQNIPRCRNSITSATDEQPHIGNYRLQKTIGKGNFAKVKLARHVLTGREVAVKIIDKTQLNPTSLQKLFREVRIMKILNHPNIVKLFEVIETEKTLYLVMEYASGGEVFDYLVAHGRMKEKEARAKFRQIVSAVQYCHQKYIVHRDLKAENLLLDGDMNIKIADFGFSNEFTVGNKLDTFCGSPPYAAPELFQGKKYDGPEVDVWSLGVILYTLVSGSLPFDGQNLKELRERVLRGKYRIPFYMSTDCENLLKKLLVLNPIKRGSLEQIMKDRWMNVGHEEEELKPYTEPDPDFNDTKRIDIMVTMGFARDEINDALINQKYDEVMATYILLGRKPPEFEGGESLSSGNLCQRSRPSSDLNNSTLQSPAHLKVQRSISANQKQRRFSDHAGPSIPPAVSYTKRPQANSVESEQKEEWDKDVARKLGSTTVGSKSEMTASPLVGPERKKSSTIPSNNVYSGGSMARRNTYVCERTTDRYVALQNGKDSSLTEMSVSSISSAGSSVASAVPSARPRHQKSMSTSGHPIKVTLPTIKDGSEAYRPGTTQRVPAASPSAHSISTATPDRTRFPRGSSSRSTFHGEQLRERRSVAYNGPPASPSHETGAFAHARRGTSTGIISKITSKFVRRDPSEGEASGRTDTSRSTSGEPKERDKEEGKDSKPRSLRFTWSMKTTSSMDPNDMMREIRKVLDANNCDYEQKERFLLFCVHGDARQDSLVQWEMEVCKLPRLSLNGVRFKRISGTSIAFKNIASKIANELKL", "method_in_brief": "(§1)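 Radiometric kinase activity assays were run with ATP at Km and compounds at 10 µM, and remaining activity (%) was reported. A separate competitive binding screen measured DNA-tagged kinase displaced from immobilized active-site ligands by qPCR, giving percent kinase still bound at 10 µM compound in DMSO.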"}, "ALK(h)": {"molecular_target": "ALK(h) (Homo sapiens, UniProt Q9UM73)", "sequence (Q9UM73 whole entry)": "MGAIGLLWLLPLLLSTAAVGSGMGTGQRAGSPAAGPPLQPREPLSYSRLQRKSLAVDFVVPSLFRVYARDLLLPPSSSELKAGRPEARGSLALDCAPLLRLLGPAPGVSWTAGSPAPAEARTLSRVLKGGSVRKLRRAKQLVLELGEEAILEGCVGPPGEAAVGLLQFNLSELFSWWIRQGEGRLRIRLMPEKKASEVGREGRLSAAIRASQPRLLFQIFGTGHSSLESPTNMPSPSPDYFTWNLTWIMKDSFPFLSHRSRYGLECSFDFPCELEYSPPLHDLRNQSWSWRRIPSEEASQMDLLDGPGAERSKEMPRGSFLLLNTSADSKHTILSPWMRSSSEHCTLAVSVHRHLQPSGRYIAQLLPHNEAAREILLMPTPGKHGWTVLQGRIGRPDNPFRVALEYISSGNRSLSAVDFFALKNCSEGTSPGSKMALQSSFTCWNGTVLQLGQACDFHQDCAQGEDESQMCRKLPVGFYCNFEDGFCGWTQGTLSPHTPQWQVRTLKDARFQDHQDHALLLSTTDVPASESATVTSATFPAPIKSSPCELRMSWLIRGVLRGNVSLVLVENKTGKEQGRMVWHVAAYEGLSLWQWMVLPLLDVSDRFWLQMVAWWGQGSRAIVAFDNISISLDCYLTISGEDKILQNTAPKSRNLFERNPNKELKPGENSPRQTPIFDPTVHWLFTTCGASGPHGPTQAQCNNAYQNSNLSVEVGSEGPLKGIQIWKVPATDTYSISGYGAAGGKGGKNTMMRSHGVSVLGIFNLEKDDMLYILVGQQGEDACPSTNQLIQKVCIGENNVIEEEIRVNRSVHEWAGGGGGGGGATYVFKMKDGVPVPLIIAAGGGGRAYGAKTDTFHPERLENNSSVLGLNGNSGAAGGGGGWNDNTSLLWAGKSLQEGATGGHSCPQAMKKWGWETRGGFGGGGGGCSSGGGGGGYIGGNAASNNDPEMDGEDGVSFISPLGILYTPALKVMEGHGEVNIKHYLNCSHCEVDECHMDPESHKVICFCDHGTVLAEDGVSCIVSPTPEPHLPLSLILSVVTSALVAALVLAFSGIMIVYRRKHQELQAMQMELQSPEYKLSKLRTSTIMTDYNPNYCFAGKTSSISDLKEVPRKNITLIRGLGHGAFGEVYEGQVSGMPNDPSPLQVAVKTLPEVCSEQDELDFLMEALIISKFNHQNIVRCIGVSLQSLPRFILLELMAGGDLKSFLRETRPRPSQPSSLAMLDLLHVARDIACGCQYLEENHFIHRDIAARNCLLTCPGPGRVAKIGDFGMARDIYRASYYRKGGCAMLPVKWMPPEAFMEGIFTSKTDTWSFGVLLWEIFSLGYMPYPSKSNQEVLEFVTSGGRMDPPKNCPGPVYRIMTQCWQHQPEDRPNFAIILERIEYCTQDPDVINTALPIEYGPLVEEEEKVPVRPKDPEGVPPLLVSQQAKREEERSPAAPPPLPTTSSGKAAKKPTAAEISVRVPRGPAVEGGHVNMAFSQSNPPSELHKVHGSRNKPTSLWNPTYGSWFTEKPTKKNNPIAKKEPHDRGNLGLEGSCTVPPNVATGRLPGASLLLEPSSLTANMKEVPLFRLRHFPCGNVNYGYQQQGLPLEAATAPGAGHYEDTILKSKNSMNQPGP", "method_in_brief": "as §1"}, "Ret (V804L)(h)": {"molecular_target": "Ret (V804L)(h) (Homo sapiens, UniProt P07949, V804L)", "sequence (P07949 whole entry V804L)": "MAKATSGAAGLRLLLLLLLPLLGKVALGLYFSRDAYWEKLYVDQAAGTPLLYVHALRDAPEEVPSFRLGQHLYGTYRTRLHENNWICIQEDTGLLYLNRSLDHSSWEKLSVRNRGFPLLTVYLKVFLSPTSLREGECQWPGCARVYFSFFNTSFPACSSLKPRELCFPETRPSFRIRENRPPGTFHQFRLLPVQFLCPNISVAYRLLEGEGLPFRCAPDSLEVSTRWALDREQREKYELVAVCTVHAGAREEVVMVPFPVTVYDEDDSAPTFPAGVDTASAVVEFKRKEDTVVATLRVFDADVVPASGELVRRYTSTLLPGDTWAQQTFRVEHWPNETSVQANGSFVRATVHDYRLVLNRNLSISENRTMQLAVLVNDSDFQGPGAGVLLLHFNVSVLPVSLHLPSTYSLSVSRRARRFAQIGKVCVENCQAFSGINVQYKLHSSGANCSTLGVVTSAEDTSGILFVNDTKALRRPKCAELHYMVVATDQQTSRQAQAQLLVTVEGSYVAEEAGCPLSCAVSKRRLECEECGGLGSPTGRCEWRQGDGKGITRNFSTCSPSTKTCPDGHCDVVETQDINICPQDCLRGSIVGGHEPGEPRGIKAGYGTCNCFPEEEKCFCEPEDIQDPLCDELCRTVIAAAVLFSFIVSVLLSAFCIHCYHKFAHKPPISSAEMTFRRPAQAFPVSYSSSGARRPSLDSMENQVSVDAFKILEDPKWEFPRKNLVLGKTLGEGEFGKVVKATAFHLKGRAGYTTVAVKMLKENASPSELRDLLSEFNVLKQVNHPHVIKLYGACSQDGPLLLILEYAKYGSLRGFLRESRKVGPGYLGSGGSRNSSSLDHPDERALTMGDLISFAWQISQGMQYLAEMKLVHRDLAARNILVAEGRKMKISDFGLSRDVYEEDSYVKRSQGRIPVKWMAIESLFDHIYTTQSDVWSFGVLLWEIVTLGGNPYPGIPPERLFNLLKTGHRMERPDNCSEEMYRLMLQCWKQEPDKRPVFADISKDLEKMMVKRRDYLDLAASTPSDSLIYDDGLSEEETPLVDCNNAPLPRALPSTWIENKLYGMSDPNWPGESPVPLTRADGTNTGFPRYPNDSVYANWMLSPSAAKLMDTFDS", "method_in_brief": "as §1"}, "Plk4(h)": {"molecular_target": "T1, Plk4(h) (Homo sapiens, UniProt O00444)", "T1 sequence (O00444 1-970)": "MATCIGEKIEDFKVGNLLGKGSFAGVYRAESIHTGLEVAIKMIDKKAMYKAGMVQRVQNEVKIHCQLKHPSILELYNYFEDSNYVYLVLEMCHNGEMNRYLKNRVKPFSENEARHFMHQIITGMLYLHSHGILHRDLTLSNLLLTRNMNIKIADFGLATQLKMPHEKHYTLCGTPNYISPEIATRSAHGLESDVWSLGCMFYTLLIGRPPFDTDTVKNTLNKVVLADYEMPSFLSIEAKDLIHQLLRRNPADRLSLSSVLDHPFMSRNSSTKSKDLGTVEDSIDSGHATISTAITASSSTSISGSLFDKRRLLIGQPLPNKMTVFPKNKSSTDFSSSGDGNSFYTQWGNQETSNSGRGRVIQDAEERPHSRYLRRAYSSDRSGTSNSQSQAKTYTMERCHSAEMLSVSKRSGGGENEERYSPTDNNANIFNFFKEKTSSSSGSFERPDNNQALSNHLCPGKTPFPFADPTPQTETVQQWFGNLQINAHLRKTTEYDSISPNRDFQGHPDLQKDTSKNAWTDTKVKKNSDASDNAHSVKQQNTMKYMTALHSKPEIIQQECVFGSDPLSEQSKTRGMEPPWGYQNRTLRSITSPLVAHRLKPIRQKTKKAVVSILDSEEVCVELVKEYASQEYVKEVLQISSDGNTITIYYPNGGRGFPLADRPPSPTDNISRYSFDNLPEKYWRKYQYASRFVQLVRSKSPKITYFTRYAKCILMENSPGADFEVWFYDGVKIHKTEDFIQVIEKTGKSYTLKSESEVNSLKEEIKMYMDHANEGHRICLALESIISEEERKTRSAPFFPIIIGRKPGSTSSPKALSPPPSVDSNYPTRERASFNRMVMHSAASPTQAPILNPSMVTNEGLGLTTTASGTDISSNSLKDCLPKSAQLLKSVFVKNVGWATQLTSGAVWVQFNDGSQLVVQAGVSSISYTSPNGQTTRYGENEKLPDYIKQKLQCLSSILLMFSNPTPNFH", "method_in_brief": "as §1"}, "EphA1(h)": {"molecular_target": "T2, EphA1(h) (Homo sapiens, UniProt P21709)", "T2 sequence (P21709 1-976)": "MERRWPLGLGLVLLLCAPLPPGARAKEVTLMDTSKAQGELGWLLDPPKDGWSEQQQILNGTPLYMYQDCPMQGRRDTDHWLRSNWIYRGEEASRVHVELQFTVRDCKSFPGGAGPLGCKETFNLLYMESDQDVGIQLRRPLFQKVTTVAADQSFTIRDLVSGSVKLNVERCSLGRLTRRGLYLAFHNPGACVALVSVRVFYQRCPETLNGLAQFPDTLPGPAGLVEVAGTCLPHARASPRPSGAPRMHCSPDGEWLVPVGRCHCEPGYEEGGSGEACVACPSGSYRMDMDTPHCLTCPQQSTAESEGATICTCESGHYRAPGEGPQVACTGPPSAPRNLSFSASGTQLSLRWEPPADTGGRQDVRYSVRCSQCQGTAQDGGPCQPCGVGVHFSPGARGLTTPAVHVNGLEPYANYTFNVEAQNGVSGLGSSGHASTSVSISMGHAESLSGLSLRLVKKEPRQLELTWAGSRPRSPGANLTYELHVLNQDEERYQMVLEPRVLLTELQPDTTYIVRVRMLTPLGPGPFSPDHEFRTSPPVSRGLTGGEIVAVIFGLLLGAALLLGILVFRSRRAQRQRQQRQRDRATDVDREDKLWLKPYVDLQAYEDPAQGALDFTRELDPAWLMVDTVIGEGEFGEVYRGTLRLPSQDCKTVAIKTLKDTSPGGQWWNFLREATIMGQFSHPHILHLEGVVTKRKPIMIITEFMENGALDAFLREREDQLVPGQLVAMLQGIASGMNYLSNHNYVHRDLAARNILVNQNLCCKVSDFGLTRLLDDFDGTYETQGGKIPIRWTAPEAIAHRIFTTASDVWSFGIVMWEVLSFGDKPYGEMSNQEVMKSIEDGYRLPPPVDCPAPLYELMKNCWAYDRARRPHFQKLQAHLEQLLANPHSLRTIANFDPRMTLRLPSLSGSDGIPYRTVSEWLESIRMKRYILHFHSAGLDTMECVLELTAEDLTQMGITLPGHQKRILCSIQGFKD", "method_in_brief": "as §1"}, "[1]": {"conditions": "read-out: Residual activity (%) Spautin-1 5aa"}, "[2]": {"conditions": "read-out: Residual activity (%) 5as"}, "[3]": {"conditions": "read-out: Residual activity (%) 5at"}, "[4]": {"conditions": "read-out: Residual activity (%) 5ay"}},
  "note": "Like-named read-outs stand apart in the source and are kept apart here.",
  "data": [
    {"smiles": "Fc1ccc(CNc2ncnc3ccc(F)cc23)cc1", "note": "[5aa, 6-Fluoro-N-(4-fluorobenzyl)-4-Quinazolinamine]", "values": [
      {"measurement": "remaining activity at 10 µM", "setting": "MARK1(h); [1]", "value": 89, "unit": "%"},
      {"measurement": "remaining activity at 10 µM", "setting": "ALK(h); [1]", "value": 82, "unit": "%"},
      {"measurement": "remaining activity at 10 µM", "setting": "Ret (V804L)(h); [1]", "value": 82, "unit": "%"},
      {"measurement": "remaining activity at 10 µM", "setting": "Plk4(h); [1]", "value": 91, "unit": "%"},
      {"measurement": "remaining activity at 10 µM", "setting": "EphA1(h); [1]", "value": 93, "unit": "%"}
    ]},
    {"smiles": "Fc1ccc(CCNc2ncnc3ccc(F)cc23)cc1", "note": "[5as, 6-Fluoro-N-[2-(4-Fluorophenyl)Ethyl]-4-Quinazolinamine]", "values": [
      {"measurement": "remaining activity at 10 µM", "setting": "MARK1(h); [2]", "value": 96, "unit": "%"},
      {"measurement": "remaining activity at 10 µM", "setting": "ALK(h); [2]", "value": 59, "unit": "%"},
      {"measurement": "remaining activity at 10 µM", "setting": "Ret (V804L)(h); [2]", "value": 78, "unit": "%"},
      {"measurement": "remaining activity at 10 µM", "setting": "Plk4(h); [2]", "value": 80, "unit": "%"},
      {"measurement": "remaining activity at 10 µM", "setting": "EphA1(h); [2]", "value": 66, "unit": "%"}
    ]},
    {"smiles": "Fc1ccc2ncnc(NCCc3ccc(Cl)cc3)c2c1", "note": "[5at, N-[2-(4-Chlorophenyl)Ethyl]-6-Fluoro-4-Quinazolinamine]", "values": [
      {"measurement": "remaining activity at 10 µM", "setting": "MARK1(h); [3]", "value": 82, "unit": "%"},
      {"measurement": "remaining activity at 10 µM", "setting": "ALK(h); [3]", "value": 86, "unit": "%"},
      {"measurement": "remaining activity at 10 µM", "setting": "Ret (V804L)(h); [3]", "value": 71, "unit": "%"},
      {"measurement": "remaining activity at 10 µM", "setting": "Plk4(h); [3]", "value": 78, "unit": "%"},
      {"measurement": "remaining activity at 10 µM", "setting": "EphA1(h); [3]", "value": 74, "unit": "%"}
    ]},
    {"smiles": "COc1ccc2ncnc(Nc3cccc(F)c3)c2c1", "note": "[5ay, N-(3-Fluorophenyl)-6-Methoxy-4-Quinazolinamine]", "values": [
      {"measurement": "remaining activity at 10 µM", "setting": "MARK1(h); [4]", "value": 89, "unit": "%"},
      {"measurement": "remaining activity at 10 µM", "setting": "ALK(h); [4]", "value": 72, "unit": "%"},
      {"measurement": "remaining activity at 10 µM", "setting": "Ret (V804L)(h); [4]", "value": 91, "unit": "%"},
      {"measurement": "remaining activity at 10 µM", "setting": "Plk4(h); [4]", "value": 87, "unit": "%"},
      {"measurement": "remaining activity at 10 µM", "setting": "EphA1(h); [4]", "value": 61, "unit": "%"}
    ]}
  ]
}
